According to ChEMBL document CHEMBL5518178 (Eur J Med Chem, 2024):
Calls of active or inactive are those of the source. No cut-off for these calls is given here.

How the values were obtained:
[1] = target: T1, Tubulin beta (Homo sapiens) (UniProt P68371+Q9H4B7+Q13509+P04350+Q3ZCM7+P07437+Q13885+Q9BVA1+Q9BUF5+A6NNZ2); assay: Binding affinity to beta-tubulin (unknown origin) assessed as increase in alkaline protease level at 1 to 100 uM preincubated for 1 hr followed by alkaline protease addition and measured after 15 mins by Western blotting analysis; assay type: protein assay; details: dose 1-100 µM, time 75.0 min
[2] = Toxicity in BALB/c-nude mouse xenografted with human MGC-803 cells assessed as alteration in liver tissue at 30 mg/kg/day, ip administered for 18 days by hematoxylin and eosin staining based analysis; assay type: organism-based; details: in vivo, 432 h, time 18 day
[3] = target: T1, Tubulin beta (Homo sapiens); assay: Binding affinity to beta-tubulin (unknown origin) colchicine binding site assessed as reduction in beta-tubulin-EBI adduct at 10 to 30 uM incubated for 2 hrs in presence of EBI by Western blotting; assay type: protein assay; details: dose 10-30 µM
[4] = Toxicity in BALB/c-nude mouse xenografted with human MGC-803 cells assessed as alteration in kidney tissue at 30 mg/kg/day, ip administered for 18 days by hematoxylin and eosin staining based analysis; assay type: organism-based; details: in vivo, 432 h, time 18 day
MGC-803 [5] = assay: Induction of cell cycle arrest in human MGC-803 cells at M phase assessed as increase in p-Histone H3 level at 10 to 40 nmol/L incubated for 48 hrs by Western blotting; assay type: functional, cell-based; details: dose 10-40 nmol/L
MGC-803 [6] = assay: Antitumor activity against human MGC-803 cells xenografted in BALB/c-nude mouse assessed as tumor growth inhibition at 30 mg/kg/day, ip administered for 18 days relative to control; assay type: functional; details: MGC-803, 432 h, time 18 day, read-out: TGI
MGC-803 [7] = assay: Antitumor activity against human MGC-803 cells xenografted in BALB/c-nude mouse assessed as tumor weight at 30 mg/kg/day, ip administered for 18 days (reference value: 0.656 g); assay type: functional; details: time 18 day
[8] = Toxicity in BALB/c-nude mouse xenografted with human MGC-803 cells assessed as alteration in spleen tissue at 30 mg/kg/day, ip administered for 18 days by hematoxylin and eosin staining based analysis; assay type: organism-based; details: in vivo, 432 h, time 18 day
MGC-803 [9] = assay: Induction of apoptosis in human MGC-803 cells assessed as decrease in Bcl-xL protein level at 10 to 40 nmol/L incubated for 48 hrs by Western blotting; assay type: functional, cell-based; details: dose 10-40 nmol/L
Tubulin (Homo sapiens) [10] = target: T2, Tubulin (Homo sapiens) (UniProt P68371+Q9H4B7+P0DPH7+P68366+Q13509+Q71U36+P04350+Q3ZCM7+P07437+P68363+Q9BQE3+Q6PEY2+Q13885+Q9BVA1+Q9BUF5); assay: Inhibition of tubulin polymerization in human MGC-803 cells assessed as appearance of multinucleated cells at 10 to 40 nmol/L incubated for 48 hrs by DAPI staining based fluorescence microscopic analysis; assay type: cell-based; details: dose 10-40 nmol/L
[11] = Toxicity in BALB/c-nude mouse xenografted with human MGC-803 cells assessed as change in body weight at 30 mg/kg/day, ip administered for 18 days; assay type: organism-based; details: in vivo, 432 h, time 18 day
MGC-803 [12] = assay: Induction of apoptosis in human MGC-803 cells assessed as necrotic cells at 40 nmol/L incubated for 48 hrs by Annexin V-FITC/propidium iodide staining based flow cytometer analysis (reference value: 0.32 %); assay type: functional
MGC-803 [13] = assay: Induction of apoptosis in human MGC-803 cells assessed as caspase-9 cleavage at 10 to 40 nmol/L incubated for 48 hrs by Western blotting; assay type: functional, cell-based; details: dose 10-40 nmol/L
MGC-803 [14] = assay: Antiproliferative activity against human MGC-803 cells assessed as decrease in cell density at 10 to 40 nmol/L incubated for 48 hrs by bright field microscopic analysis; assay type: functional, cell-based; details: dose 10-40 nmol/L
MGC-803 [15] = assay: Anti-migratory activity against human MGC-803 cells assessed as decrease in MMP-9 level at 10 to 40 nmol/L by Western blotting; assay type: functional, cell-based; details: dose 10-40 nmol/L
MGC-803 [16] = assay: Induction of apoptosis in human MGC-803 cells assessed as necrotic cells at 20 nmol/L incubated for 48 hrs by Annexin V-FITC/propidium iodide staining based flow cytometer analysis (reference value: 0.32 %); assay type: functional
MGC-803 [17] = assay: Induction of apoptosis in human MGC-803 cells assessed as early apoptotic cells at 40 nmol/L incubated for 48 hrs by Annexin V-FITC/propidium iodide staining based flow cytometer analysis (reference value: 4.38 %); assay type: functional
[18] = Toxicity in BALB/c-nude mouse xenografted with human MGC-803 cells assessed as alteration in heart tissue at 30 mg/kg/day, ip administered for 18 days by hematoxylin and eosin staining based analysis; assay type: organism-based; details: in vivo, 432 h, time 18 day
Tubulin (Homo sapiens) [19] = target: T2, Tubulin (Homo sapiens); assay: Inhibition of tubulin polymerization in human MGC-803 cells assessed as reduction in filamentous microtubule structure formation at 10 to 40 nmol/L incubated for 48 hrs by DAPI staining based fluorescence microscopic analysis; assay type: cell-based; details: dose 10-40 nmol/L
MGC-803 [20] = assay: Antitumor activity against human MGC-803 cells xenografted in BALB/c-nude mouse assessed as tumor growth rate at 30 mg/kg/day, ip administered for 18 days relative to control; assay type: functional; details: time 18 day
[21] = Toxicity in BALB/c-nude mouse xenografted with human MGC-803 cells assessed as alteration in lung tissue at 30 mg/kg/day, ip administered for 18 days by hematoxylin and eosin staining based analysis; assay type: organism-based; details: in vivo, 432 h, time 18 day
HCT-116 = assay: Antiproliferative activity against human HCT-116 cells assessed as inhibition of cell growth incubated for 48 hrs by MTT assay; assay type: functional, cell-based; details: HCT-116, 48 h
MGC-803 [22] = assay: Antiproliferative activity against human MGC-803 cells assessed as reduction in cell viability at 20 to 80 nmol/L by MTT assay; assay type: functional, cell-based; details: dose 20-80 nmol/L, time 12-48 hrs, TDE = time-dependent effect
MGC-803 [23] = assay: Antiproliferative activity against human MGC-803 cells assessed as increase in nuclear concentration at 10 to 40 nmol/L incubated for 48 hrs by DAPI staining based fluorescence microscopic analysis; assay type: functional, cell-based; details: dose 10-40 nmol/L
MGC-803 [24] = assay: Induction of apoptosis in human MGC-803 cells assessed as late apoptotic cells at 40 nmol/L incubated for 48 hrs by Annexin V-FITC/propidium iodide staining based flow cytometer analysis (reference value: 2.22 %); assay type: functional
MGC-803 [25] = assay: Inhibition of colony formation in human MGC-803 cells incubated for 7 days by crystal violet staining based analysis; assay type: functional, cell-based; details: dose 24-40 nmol/L, time 7.0 day
MGC-803 [26] = assay: Induction of apoptosis in human MGC-803 cells assessed as viable cells at 40 nmol/L incubated for 48 hrs by Annexin V-FITC/propidium iodide staining based flow cytometer analysis (reference value: 93.08 %); assay type: functional; details: read-out: Activity
MGC-803 [27] = assay: Induction of apoptosis in human MGC-803 cells assessed as viable cells at 20 nmol/L incubated for 48 hrs by Annexin V-FITC/propidium iodide staining based flow cytometer analysis (reference value: 93.08 %); assay type: functional; details: read-out: Activity
Tubulin (Homo sapiens) [28] = target: T2, Tubulin (Homo sapiens); assay: Inhibition of tubulin polymerization (unknown origin) at 1 to 3 uM by fluorescence plate reader analysis; assay type: protein-complex assay; details: dose 1-3 µM
MGC-803 [29] = assay: Induction of apoptosis in human MGC-803 cells assessed as increase in cleaved PARP at 10 to 40 nmol/L incubated for 48 hrs by Western blotting; assay type: functional, cell-based; details: dose 10-40 nmol/L
MGC-803 [30] = assay: Induction of apoptosis in human MGC-803 cells assessed as late apoptotic cells at 20 nmol/L incubated for 48 hrs by Annexin V-FITC/propidium iodide staining based flow cytometer analysis (reference value: 2.22 %); assay type: functional

Activity [1]: Active | Activity [3]: Active | inhibition (Tubulin (Homo sapiens) [10]): Active | inhibition (Tubulin (Homo sapiens) [19]): Active | IC50 (HCT-116): 81 nM | inhibition (Tubulin (Homo sapiens) [28]): Active
Structure (SMILES): COc1ccc2c(c1)CCCN2c1cc(=O)oc2ccccc12
Activity [2]: Non-Toxic | Activity [4]: Non-Toxic | Activity (MGC-803 [5]): Active | inhibition in vivo at 30 mg/kg/day (MGC-803 [6]): 65.5% | Activity (MGC-803 [7]): 0.226 g | Activity [8]: Non-Toxic | Activity (MGC-803 [9]): Active | Activity [11]: Non-Toxic | Activity (MGC-803 [12]): 1.3% | Activity (MGC-803 [13]): Active | Activity (MGC-803 [14]): Active | Activity (MGC-803 [15]): Active | Activity (MGC-803 [16]): 0.12% | Activity (MGC-803 [17]): 41.97% | Activity [18]: Non-Toxic | Activity (MGC-803 [20]): 25% | Activity [21]: Non-Toxic | Activity (MGC-803 [22]): Tde | Activity (MGC-803 [23]): Active | Activity (MGC-803 [24]): 17.65% | inhibition (MGC-803 [25]): Dose-Dependent Effect | viability at 0.04 µM (MGC-803 [26]): 39.1% | viability at 0.02 µM (MGC-803 [27]): 88% | Activity (MGC-803 [29]): Active | Activity (MGC-803 [30]): 2.7%
